The term inhibition denotes the share of the control response that was lost under treatment.

The results in this text go back to patent publication US8962631B2 (Vertex Pharmaceuticals Incorporated, priority 2010, dated 2015).

T1 sequence (Q13535 whole entry): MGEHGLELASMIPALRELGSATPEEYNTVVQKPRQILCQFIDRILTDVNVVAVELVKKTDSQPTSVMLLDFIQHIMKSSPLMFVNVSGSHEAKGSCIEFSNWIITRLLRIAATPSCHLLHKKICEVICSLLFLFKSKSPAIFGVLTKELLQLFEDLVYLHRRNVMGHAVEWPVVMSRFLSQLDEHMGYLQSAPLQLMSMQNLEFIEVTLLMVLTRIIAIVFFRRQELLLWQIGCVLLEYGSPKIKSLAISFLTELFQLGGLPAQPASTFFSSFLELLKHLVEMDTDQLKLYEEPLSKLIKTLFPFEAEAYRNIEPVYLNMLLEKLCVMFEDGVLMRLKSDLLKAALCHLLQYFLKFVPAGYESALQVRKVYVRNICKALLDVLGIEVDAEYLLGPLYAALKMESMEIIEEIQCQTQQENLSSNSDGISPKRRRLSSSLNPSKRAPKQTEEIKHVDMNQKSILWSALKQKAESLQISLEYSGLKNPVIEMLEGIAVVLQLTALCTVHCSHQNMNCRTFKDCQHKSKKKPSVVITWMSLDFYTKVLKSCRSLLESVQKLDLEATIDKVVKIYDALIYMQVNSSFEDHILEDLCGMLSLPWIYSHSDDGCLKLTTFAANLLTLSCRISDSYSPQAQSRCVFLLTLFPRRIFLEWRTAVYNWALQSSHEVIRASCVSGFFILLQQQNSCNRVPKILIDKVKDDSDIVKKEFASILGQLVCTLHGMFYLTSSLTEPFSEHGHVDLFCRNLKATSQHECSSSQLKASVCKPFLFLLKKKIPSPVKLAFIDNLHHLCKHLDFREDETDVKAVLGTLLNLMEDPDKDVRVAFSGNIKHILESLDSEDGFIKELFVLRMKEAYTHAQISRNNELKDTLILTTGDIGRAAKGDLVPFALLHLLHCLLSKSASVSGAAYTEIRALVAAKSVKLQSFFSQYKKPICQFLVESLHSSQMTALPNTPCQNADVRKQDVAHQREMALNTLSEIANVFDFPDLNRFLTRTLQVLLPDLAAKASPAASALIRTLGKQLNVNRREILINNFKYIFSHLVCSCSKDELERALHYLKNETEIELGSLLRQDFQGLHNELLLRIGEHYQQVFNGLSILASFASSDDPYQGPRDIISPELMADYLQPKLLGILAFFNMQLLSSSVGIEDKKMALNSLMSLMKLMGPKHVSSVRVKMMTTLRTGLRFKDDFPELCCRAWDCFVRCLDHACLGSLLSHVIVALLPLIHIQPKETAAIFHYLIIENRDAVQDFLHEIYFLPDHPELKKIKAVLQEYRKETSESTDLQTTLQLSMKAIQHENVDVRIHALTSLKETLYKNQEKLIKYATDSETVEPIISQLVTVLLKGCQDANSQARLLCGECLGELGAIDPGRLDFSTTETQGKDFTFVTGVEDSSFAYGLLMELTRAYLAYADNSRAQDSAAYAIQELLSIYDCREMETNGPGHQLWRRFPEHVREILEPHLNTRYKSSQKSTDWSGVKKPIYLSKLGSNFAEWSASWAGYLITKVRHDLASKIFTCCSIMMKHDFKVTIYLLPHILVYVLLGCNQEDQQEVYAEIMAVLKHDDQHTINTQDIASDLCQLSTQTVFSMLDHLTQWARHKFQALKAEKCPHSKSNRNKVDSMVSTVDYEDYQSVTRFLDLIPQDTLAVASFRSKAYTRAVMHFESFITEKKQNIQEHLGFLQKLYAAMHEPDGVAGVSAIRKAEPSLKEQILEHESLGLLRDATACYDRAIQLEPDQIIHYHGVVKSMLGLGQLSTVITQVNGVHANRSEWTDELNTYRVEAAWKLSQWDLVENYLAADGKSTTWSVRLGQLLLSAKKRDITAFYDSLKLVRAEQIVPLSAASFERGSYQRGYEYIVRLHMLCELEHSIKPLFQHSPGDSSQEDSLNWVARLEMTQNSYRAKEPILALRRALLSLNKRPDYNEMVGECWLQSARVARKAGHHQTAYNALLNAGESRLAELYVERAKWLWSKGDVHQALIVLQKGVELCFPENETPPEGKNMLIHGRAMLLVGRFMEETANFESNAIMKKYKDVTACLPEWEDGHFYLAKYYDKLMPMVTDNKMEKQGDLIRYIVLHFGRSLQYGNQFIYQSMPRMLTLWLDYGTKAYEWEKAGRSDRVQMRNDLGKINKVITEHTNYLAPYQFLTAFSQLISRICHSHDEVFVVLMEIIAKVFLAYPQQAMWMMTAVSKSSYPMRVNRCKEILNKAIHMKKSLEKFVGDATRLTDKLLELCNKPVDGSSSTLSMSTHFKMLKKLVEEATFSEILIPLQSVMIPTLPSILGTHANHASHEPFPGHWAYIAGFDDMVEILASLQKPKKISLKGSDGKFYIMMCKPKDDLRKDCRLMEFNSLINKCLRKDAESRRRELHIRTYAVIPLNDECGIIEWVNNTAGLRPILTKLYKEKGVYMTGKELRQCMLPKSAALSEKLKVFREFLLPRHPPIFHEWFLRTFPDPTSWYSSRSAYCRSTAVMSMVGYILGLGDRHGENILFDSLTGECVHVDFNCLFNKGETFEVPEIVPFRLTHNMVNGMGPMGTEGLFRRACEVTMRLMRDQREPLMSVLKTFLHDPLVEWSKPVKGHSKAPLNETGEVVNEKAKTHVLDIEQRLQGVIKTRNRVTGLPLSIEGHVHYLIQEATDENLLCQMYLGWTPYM

One assay concerns the target T1, full-length ATR (Homo sapiens, UniProt Q13535).
T1 construct: Assays were carried out at 25° C. in the presence of 5 nM full-length ATR
In words: ATR Inhibition Assay (radioactive-phosphate incorporation). The format is biochemical. The conditions noted are these: Ki(app); 10 μM ATP, 800 μM target peptide, 5 nM full-length ATR, 25° C. As for the experimental part: Compounds were screened for their ability to inhibit ATR kinase using a radioactive-phosphate incorporation assay. Assays were carried out in a mixture of 50 mM Tris/HCl (pH 7.5), 10 mM MgCl2 and 1 mM DTT. Final substrate concentrations were 10 μM [γ-33P]ATP (3 mCi 33P ATP/mmol ATP, Perkin Elmer) and 800 μM target peptide ([…] (SEQ. ID NO: 1)).
Assays were carried out at 25° C. in the presence of 5 nM full-length ATR. An assay stock buffer solution was prepared containing all of the reagents listed above, with the exception of ATP and the test compound of interest. 13.5 μL of the stock solution was placed in a 96 well plate followed by addition of 2 μL of DMSO stock containing serial dilutions of the test compound (typically starting from a final concentration of 15 μM with 3-fold serial dilutions) in duplicate (final DMSO concentration 7%). The plate was pre-incubated for 10 minutes at 25° C. and the reaction initiated by addition of 15 μL [γ-33P]ATP (final concentration 10 μM).
The reaction was stopped after 24 hours by the addition of 30 μL 0.1M phosphoric acid containing 2 mM ATP. A multiscreen phosphocellulose filter 96-well plate (Millipore, Cat no. MAPHN0B50) was pretreated with 100 μL 0.2M phosphoric acid prior to the addition of 45 μL of the stopped assay mixture. The plate was washed with […] 0.2M phosphoric acid. After drying, 100 μL Optiphase ‘SuperMix’ liquid scintillation cocktail (Perkin Elmer) was added to the well prior to scintillation counting (1450 Microbeta Liquid Scintillation Counter, Wallac).
After removing mean background values for all of the data points, Ki(app) data were calculated from non-linear regression analysis of the initial rate data using the Prism software package (GraphPad Prism version 3.0cx for Macintosh, GraphPad Software, San Diego Calif., USA).
Turning to `Cc1ccc2nc(-c3nc(C(=O)NC(C)c4ccccc4)cnc3N)[nH]c2c1` (stereo in doubt) [II-57, 5-Amino-6-(6-methyl-1H-benzimidazol-2-yl)-N-[(1R)1-phenylethyl]pyrazine-2-carboxamide], the Ki lay in the range of 1 to 8 µM.

Take `CCN(CC)C(=O)c1cnc(N)c(-c2nc3ccc(C)cc3[nH]2)n1` [II-46, 5-Amino-N,N-diethyl-6-(6-methyl-1H-benzimidazol-2-yl)pyrazine-2-carboxamide]: the Ki lay in the range of 1 to 8 µM.

Take `CC(=O)Nc1cccc(Oc2cnc(N)c(-c3nc4ccccc4[nH]3)n2)c1` [II-9, N-[3-[5-Amino-6-(1H-benzimidazol-2-yl)pyrazin-2-yl]oxyphenyl]acetamide]: the Ki was 1 to 8 µM.

Turning to `COc1ccccc1NC(=O)c1nc(Oc2ccccc2)cnc1N` [II-16, 3-Amino-N-(2-methoxyphenyl)-6-phenoxy-pyrazine-2-carboxamide], the Ki is at most 0.5 µM.

Regarding `Cc1ccc2nc(-c3nc(OC4CCCN(C)C4)cnc3N)[nH]c2c1` (centres unmarked) [II-33, 3-(6-Methyl-1H-benzimidazol-2-yl)-5-[(1-methyl-3-piperidyl)oxy]pyrazin-2-amine], the Ki is 1 to 8 µM.

Take `Nc1ncc(Oc2ccccc2)nc1-c1nc2ccccc2[nH]1` [II-7, 3-(1H-Benzimidazol-2-yl)-5-phenoxy-pyrazin-2-amine]: the Ki was 0.5 to 1 µM.

For the compound `Cc1ccc2nc(-c3nc(C(=O)NCCc4ccccc4)cnc3N)[nH]c2c1` [II-69, 5-Amino-6-(6-methyl-1H-benzimidazol-2-yl)-N-phenethyl-pyrazine-2-carboxamide], the Ki is 0.5 to 1 µM.

For `N#Cc1cccc(Oc2cnc(N)c(-c3nc4ccccc4[nH]3)n2)c1` [II-10, 3-[5-Amino-6-(1H-benzimidazol-2-yl)pyrazin-2-yl]oxybenzonitrile], the Ki was at most 0.5 µM.

Take `Nc1ncc(Sc2ccccc2)nc1C(=O)Nc1ccccc1` [II-37, 3-Amino-N-phenyl-6-phenylsulfanyl-pyrazine-2-carboxamide]: the Ki fell in the range of 1 to 8 µM.

Turning to `Nc1ncc(Sc2cccc(Cl)c2)nc1-c1nc2ccccc2[nH]1` [II-39, 3-(1H-Benzimidazol-2-yl)-5-(3-chlorophenyl)sulfanyl-pyrazin-2-amine], the Ki lay in the range of 1 to 8 µM.

In the case of `Cc1ccc2nc(-c3nc(C(=O)NCC4CCCO4)cnc3N)[nH]c2c1` (centres unmarked) [II-52, 5-Amino-6-(6-methyl-1H-benzimidazol-2-yl)-N-(tetrahydrofuran-2-ylmethyl)pyrazine-2-carboxamide], the Ki was at most 0.5 µM.

`Cc1ccc2nc(-c3nc(C#CCN4CCS(=O)(=O)CC4)cnc3N)[nH]c2c1` [II-85, 5-[3-(1,1-Dioxo-1,4-thiazinan-4-yl)prop-1-ynyl]-3-(6-methyl-1H-benzimidazol-2-yl)pyrazin-2-amine]: the Ki was at most 0.5 µM.

`Cc1ccc2nc(-c3nc(C(=O)NC4CCC4)cnc3N)[nH]c2c1` [II-74, 5-Amino-N-cyclobutyl-6-(6-methyl-1H-benzimidazol-2-yl)pyrazine-2-carboxamide]: the Ki was 1 to 8 µM.

As to `Nc1ncc(Oc2cccnc2)nc1-c1nc2ccccc2[nH]1` [II-12, 3-(1H-Benzimidazol-2-yl)-5-(3-pyridyloxy)pyrazin-2-amine], the Ki is 1 to 8 µM.

In the case of `Cc1ccc2nc(-c3nc(C(=O)N(C)c4ccccc4)cnc3N)[nH]c2c1` [II-44, 5-Amino-N-methyl-6-(6-methyl-1H-benzimidazol-2-yl)-N-phenyl-pyrazine-2-carboxamide], the Ki lay within 0.5 to 1 µM.

As to `Cc1ccc2nc(-c3nc(C(=O)NCC4CC4)cnc3N)[nH]c2c1` [II-56, 5-Amino-N-(cyclopropylmethyl)-6-(6-methyl-1H-benzimidazol-2-yl)pyrazine-2-carboxamide], the Ki is at most 0.5 µM.

Consider `Cc1ccc2nc(-c3nc(Oc4ccccc4C#N)cnc3N)[nH]c2c1` [II-20, 2-[5-Amino-6-(6-methyl-1H-benzimidazol-2-yl)pyrazin-2-yl]oxybenzonitrile], for which the Ki fell in the range of 0.5 to 1 µM.

Take `Cc1ccc2nc(-c3nc(C(=O)NCCC#N)cnc3N)[nH]c2c1` [II-77, 5-Amino-N-(2-cyanoethyl)-6-(6-methyl-1H-benzimidazol-2-yl)pyrazine-2-carboxamide]: the Ki is at most 0.5 µM.

On to `Cc1ccc2nc(-c3nc(Oc4ccc(O)cc4)cnc3N)[nH]c2c1` [II-24, 4-[5-Amino-6-(6-methyl-1H-benzimidazol-2-yl)pyrazin-2-yl]oxyphenol], for which the Ki lay in the range of 1 to 8 µM.

Regarding `Cc1ccc2nc(-c3nc(C(=O)NCC(N)=O)cnc3N)[nH]c2c1` [II-50, 5-Amino-N-(2-amino-2-oxo-ethyl)-6-(6-methyl-1H-benzimidazol-2-yl)pyrazine-2-carboxamide], the Ki is 1 to 8 µM.

`Cc1ccc2nc(-c3nc(C#CCNC(N)=O)cnc3N)[nH]c2c1` [II-86, 3-[5-Amino-6-(6-methyl-1H-benzimidazol-2-yl)pyrazin-2-yl]prop-2-ynylurea]: the Ki is 1 to 8 µM.

In the case of `Cc1ccc2nc(-c3nc(Oc4c(F)cccc4F)cnc3N)[nH]c2c1` [II-22, 5-(2,6-Difluorophenoxy)-3-(6-methyl-1H-benzimidazol-2-yl)pyrazin-2-amine], the Ki is 1 to 8 µM.

For `Cc1ccc2nc(-c3nc(C(=O)N4CCOCC4)cnc3N)[nH]c2c1` [II-53, [5-Amino-6-(6-methyl-1H-benzimidazol-2-yl)pyrazin-2-yl]-morpholino-methanone], the Ki lay in the range of 1 to 8 µM.

As to `Cc1ccc2nc(-c3nc(C(=O)NCc4ccco4)cnc3N)[nH]c2c1` [II-68, 5-Amino-N-(2-furylmethyl)-6-(6-methyl-1H-benzimidazol-2-yl)pyrazine-2-carboxamide], the Ki fell in the range of 0.5 to 1 µM.

`Cc1ccc2nc(-c3nc(C(=O)NCc4cccnc4)cnc3N)[nH]c2c1` [II-70, 5-Amino-6-(6-methyl-1H-benzimidazol-2-yl)-N-(3-pyridylmethyl)pyrazine-2-carboxamide]: the Ki was 0.5 to 1 µM.

For `COCC#Cc1cnc(N)c(-c2nc3ccc(C)cc3[nH]2)n1` [II-83, 5-(3-Methoxyprop-1-ynyl)-3-(6-methyl-1H-benzimidazol-2-yl)pyrazin-2-amine], the Ki is 0.5 to 1 µM.

Take `CC(C)(O)C#Cc1cnc(N)c(C(=O)Nc2ccccc2)n1` [II-81, 3-Amino-6-(3-hydroxy-3-methyl-but-1-ynyl)-N-phenyl-pyrazine-2-carboxamide]: the Ki was in the range of 0.5 to 1 µM.

On to `CC(=O)NCCOc1cnc(N)c(-c2nc3ccc(C)cc3[nH]2)n1` [II-34, N-[2-[5-Amino-6-(6-methyl-1H-benzimidazol-2-yl)pyrazin-2-yl]oxyethyl]acetamide], for which the Ki was 1 to 8 µM.

Consider `Cc1ccc2nc(-c3nc(C(=O)NCC(=O)C(C)(C)C)cnc3N)[nH]c2c1` [II-62, 5-Amino-N-(3,3-dimethyl-2-oxo-butyl)-6-(6-methyl-1H-benzimidazol-2-yl)pyrazine-2-carboxamide], for which the Ki was 1 to 8 µM.

Turning to `Cc1ccc2nc(-c3nc(Oc4cccnc4)cnc3N)[nH]c2c1` [II-29, 3-(6-Methyl-1H-benzimidazol-2-yl)-5-(3-pyridyloxy)pyrazin-2-amine], the Ki lay within 0.5 to 1 µM.

Still in this assay, the particulars now being: at 15 uM compound; read-out: percent inhibition against ATR.
Turning to `Cc1ccc2nc(-c3nc(C(=O)Nc4ccccc4)cnc3N)[nH]c2c1` [II-41, 5-Amino-6-(6-methyl-1H-benzimidazol-2-yl)-N-phenyl-pyrazine-2-carboxamide], the inhibition at 15 µM lay within 25 to 45%.

Regarding `Cc1cccc(Oc2cnc(N)c(-c3nc4ccccc4[nH]3)n2)c1` [II-11, 3-(1H-Benzimidazol-2-yl)-5-(3-methylphenoxy)pyrazin-2-amine], the inhibition at 15 µM lay in the range of 15 to 24%.

On to `Cc1ccc2nc(-c3nc(C(=O)NCC4CCCCC4)cnc3N)[nH]c2c1` [II-63, 5-Amino-N-(cyclohexylmethyl)-6-(6-methyl-1H-benzimidazol-2-yl)pyrazine-2-carboxamide], for which the inhibition at 15 µM is 25 to 45%.

Turning to `Nc1ncc(Sc2ccccc2)nc1-c1nc2ccccc2[nH]1` [II-38, 3-(1H-Benzimidazol-2-yl)-5-phenylsulfanyl-pyrazin-2-amine], the inhibition at 15 µM is 15 to 24%.

As for `Cc1ccc2nc(-c3nc(OCCN4CCCCC4)cnc3N)[nH]c2c1` [II-27, 3-(6-Methyl-1H-benzimidazol-2-yl)-5-[2-(1-piperidyl)ethoxy]pyrazin-2-amine], the inhibition at 15 µM lay in the range of 25 to 45%.

The assay is the same for the next values; noted with them: at 30 uM compound; read-out: percent inhibition against ATR.
Regarding `Nc1ncc(Sc2cccc(F)c2)nc1-c1nc2ccccc2[nH]1` [II-40, 3-(1H-Benzimidazol-2-yl)-5-(3-fluorophenyl)sulfanyl-pyrazin-2-amine], the inhibition at 30 µM was 40 to 50%.

On to `Cc1ccc2nc(-c3nc(Oc4ccccc4Cl)cnc3N)[nH]c2c1` [II-21, 5-(2-Chlorophenoxy)-3-(6-methyl-1H-benzimidazol-2-yl)pyrazin-2-amine], for which the inhibition at 30 µM is 40 to 50%.

Staying with this assay, now noted: at 60 uM compound; read-out: percent inhibition of ATR.
As to `Cc1ccc2nc(-c3nc(Oc4cccc(Oc5ccccc5)c4)cnc3N)[nH]c2c1` [II-28, 3-(6-Methyl-1H-benzimidazol-2-yl)-5-(3-phenoxyphenoxy)pyrazin-2-amine], the inhibition at 60 µM was 10%.
